From patent US20250092052A1, “HETEROARYL DERIVATIVE COMPOUNDS, AND USES THEREOF” (VORONOI INC., priority 2023, published 2025)
pIC50: −log10 of the molar value.

Experiments:
[1] = target: Myt1-KD (Homo sapiens (Human), UniProt Q99640); experiment: Thermal Shift Assay, compound binding to Myt1-KD; settings: 2 μM protein, 100 μM compound, Tm of compound minus Tm of DMSO
Protocol: The degree of compound binding to Myt1-KD was tested using a Thermal Shift Assay. Each protein was diluted to a concentration of 2 μM in 50 mM Tris (pH 7.5) with 100 μM of the compound. SYPRO™ Orange dye was added to the solution, and the plate was transferred to a QuantStudio3 Real-Time PCR System (Applied Biosystems by Thermo Fisher Scientific). […] The degree of protein melting in the presence of the compound compared to DMSO was calculated according to the following Equation 1. ΔTm=Tm (Temperature of Example compound)−Tm (Temperature of DMSO) [Equation 1]

[2] = target: human PKMYT1 enzyme (Homo sapiens (Human), UniProt Q99640); experiment: Inhibitory activity against PKMYT1 kinase (ADP-Glo kinase assay); assay type: biochemical; settings: purified human PKMYT1, ATP, CDK1 substrate, 25° C., 1 hour
Protocol: To evaluate the inhibitory activity of the compounds synthesized according to the above Examples against PKMYT1 kinase, the Example compounds were reacted with purified human PKMYT1 enzyme and assessed using the following method.
The reaction buffer was used as a composition of 200 mM Tris-HCl pH 7.4, 100 mM MgCl2, 0.5 mg/mL BSA, 0.25 mM DTT, and the reactions of all the tests were carried out on the reaction buffer.
The compound was diluted in 12 steps using a serial dilution method from a 10 mM DMSO stock, and the enzyme activity was measured at a final compound concentration of 10˜0.00005645 μM. During the test, the enzyme activity was confirmed using in vitro ADP-Glo™kinase assay (Promega) after reacting with the proper concentration of PKMYT1 enzyme, purified ATP, and enzyme substrate (CDK1) at 25° C. for 1 hour. At a ratio of 2:2:1, an enzyme-active reaction solution, an ADP-Glo reaction solution, and an enzyme-active detection solution were reacted to measure the inhibition of the enzyme's activity with luminescence. Based on the […] of the enzyme activity of the solvent control that was not treated with the compound, the degree of enzyme activity inhibition was calculated according to the treatment concentration of each compound, and the concentration of each compound that inhibits 50% of enzyme activity was determined as IC50 (nM) value and the value was obtained by using GraphPad Prism 8.3.0 (GraphPad software Inc., San Diego) software.

Chain of Myt1-KD (Q99640 110-359): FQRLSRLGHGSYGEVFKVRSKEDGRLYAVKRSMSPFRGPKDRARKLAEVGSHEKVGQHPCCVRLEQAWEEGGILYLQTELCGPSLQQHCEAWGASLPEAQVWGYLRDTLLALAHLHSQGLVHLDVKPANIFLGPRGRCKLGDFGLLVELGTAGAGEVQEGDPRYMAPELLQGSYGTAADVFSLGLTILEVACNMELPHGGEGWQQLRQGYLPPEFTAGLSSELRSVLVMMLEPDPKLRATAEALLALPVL
Chain of human PKMYT1 enzyme (Q99640 whole entry): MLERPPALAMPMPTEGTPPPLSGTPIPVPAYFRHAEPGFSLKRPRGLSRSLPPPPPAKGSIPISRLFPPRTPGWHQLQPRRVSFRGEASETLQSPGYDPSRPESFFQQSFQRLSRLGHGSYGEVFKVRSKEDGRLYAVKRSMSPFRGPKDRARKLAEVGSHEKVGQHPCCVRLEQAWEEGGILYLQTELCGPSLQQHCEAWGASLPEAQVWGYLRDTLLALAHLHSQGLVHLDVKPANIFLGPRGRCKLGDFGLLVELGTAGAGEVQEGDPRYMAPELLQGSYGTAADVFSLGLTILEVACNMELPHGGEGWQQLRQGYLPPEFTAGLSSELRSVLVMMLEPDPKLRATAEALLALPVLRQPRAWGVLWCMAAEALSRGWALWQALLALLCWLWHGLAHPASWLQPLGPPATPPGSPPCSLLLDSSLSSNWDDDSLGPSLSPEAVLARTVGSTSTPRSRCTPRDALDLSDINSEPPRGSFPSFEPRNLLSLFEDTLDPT

pIC50 [2] | ΔTm at 100 µM [1] | SMILES | ΔTm (° C.) [1]
≥ 6.70 | ≥ 5 °C | Cc1ccc(O)c(C)c1-n1c(N)c(C(=O)c2cc3ccccc3[nH]2)c2nccnc21 (single isomer, unassigned) [Example 1] | –
≥ 6.70 | ≤ 5 °C | Cc1ccc(O)c(C)c1-n1c(N)c(C(=O)c2ccc[nH]2)c2nccnc21 [Example 23, (6-amino-5-(3-hydroxy-2,6-dimethylphenyl)-5H-pyrrolo[2,3-b]pyrazin-7-yl)(1H-pyrrol-2-yl)methanone] | –

The remaining lines, values behind:

SMILES | pIC50 [2] | ΔTm at 100 µM [1] | ΔTm (° C.) [1]
Cc1ccc(O)c(C)c1-n1c(N)c(C(=O)c2cc3ccncc3[nH]2)c2nccnc21 (atropisomer, axis not shown) [Example 25, (R)-(6-amino-5-(3-hydroxy-2,6-dimethylphenyl)-5H-pyrrolo[2,3-b]pyrazin-7-yl)(1H-pyrrolo[2,3-c]pyridin-2-yl)methanone] | ≥ 6.70 | – | A (ΔTm (° C.) ≥ 5° C.)
Cc1ccc(O)c(C)c1-n1c(N)c(C(=O)c2nc3ccccc3[nH]2)c2cccnc21 [Example 3, (S)-(2-amino-1-(3-hydroxy-2,6-dimethylphenyl)-1H-pyrrolo[2,3-b]pyridin-3-yl)(1H-benzo[d]imidazol-2-yl)methanone] | ≥ 6.70 | – | A (ΔTm (° C.) ≥ 5° C.)
Cc1ccc(O)c(C)c1-n1c(N)c(C(=O)c2cc3sccc3[nH]2)c2nc(C)c(C)nc21 [Example 13, (S)-(6-amino-5-(3-hydroxy-2,6-dimethylphenyl)-2,3-dimethyl-5H-pyrrolo[2,3-b]pyrazin-7-yl)(4H-thieno[3,2-b]pyrrol-5-yl)methanone] | ≥ 6.70 | – | A (ΔTm (° C.) ≥ 5° C.)
